Where “and” joins values, the source holds several entries; their conditions need not be identical. Equal values may be shown once.
Settings: Hot wire method

FC(F)(F)/C=C/Cl [(E)-1-chloro-3,3,3-trifluoroprop-1-ene]
Settings	thermal conductivity
403.42 K, 5979 kPa, Liquid	0.05892 W/m/K
403.43 K, 18618 kPa, Liquid	0.06817 W/m/K
403.44 K, 18637 kPa, Liquid	0.06808 W/m/K
403.48 K, 4696 kPa, Liquid	0.0577 W/m/K
403.48 K, 4700 kPa, Liquid	0.05772 W/m/K
403.49 K, 9102 kPa, Liquid	0.06156 W/m/K
403.49 K, 9108 kPa, Liquid	0.06159 W/m/K
403.53 K, 3569 kPa, Liquid	0.05653 W/m/K
403.54 K, 3575 kPa, Liquid	0.05665 W/m/K
403.54 K, 15778 kPa, Liquid	0.06628 W/m/K
403.54 K, 15782 kPa, Liquid	0.06631 W/m/K
403.58 K, 7083 kPa, Liquid	0.05991 W/m/K
403.58 K, 7093 kPa, Liquid	0.05996 W/m/K
403.59 K, 2636 kPa, Liquid	0.0556 W/m/K
403.6 K, 2641 kPa, Liquid	0.05565 W/m/K
420.8 K, 2579 kPa, Fluid (supercritical or subcritical phases)	0.02548 W/m/K
420.81 K, 2579 kPa, Fluid (supercritical or subcritical phases)	0.02537 W/m/K
420.9 K, 2520 kPa, Fluid (supercritical or subcritical phases)	0.02499 W/m/K and 0.02461 W/m/K
420.92 K, 2579 kPa, Fluid (supercritical or subcritical phases)	0.02548 W/m/K and 0.02551 W/m/K
421 K, 2520 kPa, Fluid (supercritical or subcritical phases)	0.02479 W/m/K
421.01 K, 2519 kPa, Fluid (supercritical or subcritical phases)	0.0248 W/m/K
421.03 K, 2579 kPa, Fluid (supercritical or subcritical phases)	0.02568 W/m/K
421.04 K, 2579 kPa, Fluid (supercritical or subcritical phases)	0.02548 W/m/K
421.11 K, 2519 kPa, Fluid (supercritical or subcritical phases)	0.02483 W/m/K
421.11 K, 2520 kPa, Fluid (supercritical or subcritical phases)	0.02479 W/m/K
421.15 K, 2469 kPa, Fluid (supercritical or subcritical phases)	0.02425 W/m/K and 0.02441 W/m/K
421.16 K, 2579 kPa, Fluid (supercritical or subcritical phases)	0.02588 W/m/K
421.16 K, 2580 kPa, Fluid (supercritical or subcritical phases)	0.02588 W/m/K
421.21 K, 2403 kPa, Fluid (supercritical or subcritical phases)	0.02382 W/m/K
421.24 K, 2520 kPa, Fluid (supercritical or subcritical phases)	0.02505 W/m/K
421.25 K, 2307 kPa, Fluid (supercritical or subcritical phases)	0.02316 W/m/K and 0.02317 W/m/K
421.25 K, 2520 kPa, Fluid (supercritical or subcritical phases)	0.02484 W/m/K
421.29 K, 2203 kPa, Fluid (supercritical or subcritical phases)	0.02266 W/m/K
421.29 K, 2204 kPa, Fluid (supercritical or subcritical phases)	0.02272 W/m/K
421.29 K, 2468 kPa, Fluid (supercritical or subcritical phases)	0.02448 W/m/K
421.3 K, 2469 kPa, Fluid (supercritical or subcritical phases)	0.02444 W/m/K
421.32 K, 2099 kPa, Fluid (supercritical or subcritical phases)	0.02221 W/m/K
421.33 K, 2099 kPa, Fluid (supercritical or subcritical phases)	0.02225 W/m/K
421.35 K, 2403 kPa, Fluid (supercritical or subcritical phases)	0.02395 W/m/K and 0.02391 W/m/K
421.36 K, 1997 kPa, Fluid (supercritical or subcritical phases)	0.02198 W/m/K and 0.02199 W/m/K
421.39 K, 2307 kPa, Fluid (supercritical or subcritical phases)	0.02322 W/m/K
421.39 K, 2519 kPa, Fluid (supercritical or subcritical phases)	0.02527 W/m/K
421.39 K, 2520 kPa, Fluid (supercritical or subcritical phases)	0.02527 W/m/K
421.4 K, 1861 kPa, Fluid (supercritical or subcritical phases)	0.0216 W/m/K
421.4 K, 1862 kPa, Fluid (supercritical or subcritical phases)	0.02165 W/m/K
421.44 K, 1724 kPa, Fluid (supercritical or subcritical phases)	0.02132 W/m/K
421.44 K, 2203 kPa, Fluid (supercritical or subcritical phases)	0.02269 W/m/K
421.44 K, 2469 kPa, Fluid (supercritical or subcritical phases)	0.02473 W/m/K and 0.02459 W/m/K
421.45 K, 1723 kPa, Fluid (supercritical or subcritical phases)	0.02131 W/m/K
421.45 K, 2204 kPa, Fluid (supercritical or subcritical phases)	0.02274 W/m/K
421.48 K, 2100 kPa, Fluid (supercritical or subcritical phases)	0.02256 W/m/K and 0.02228 W/m/K
421.51 K, 2403 kPa, Fluid (supercritical or subcritical phases)	0.02407 W/m/K and 0.02398 W/m/K
421.52 K, 1998 kPa, Fluid (supercritical or subcritical phases)	0.02205 W/m/K and 0.02199 W/m/K
421.53 K, 1561 kPa, Fluid (supercritical or subcritical phases)	0.02097 W/m/K
421.54 K, 1562 kPa, Fluid (supercritical or subcritical phases)	0.02106 W/m/K
421.56 K, 2307 kPa, Fluid (supercritical or subcritical phases)	0.02344 W/m/K and 0.02334 W/m/K
421.57 K, 1862 kPa, Fluid (supercritical or subcritical phases)	0.02171 W/m/K
421.57 K, 1863 kPa, Fluid (supercritical or subcritical phases)	0.02167 W/m/K
421.58 K, 1402 kPa, Fluid (supercritical or subcritical phases)	0.02076 W/m/K
421.59 K, 1402 kPa, Fluid (supercritical or subcritical phases)	0.02091 W/m/K
421.61 K, 2204 kPa, Fluid (supercritical or subcritical phases)	0.02283 W/m/K
421.62 K, 1724 kPa, Fluid (supercritical or subcritical phases)	0.02136 W/m/K
421.62 K, 2203 kPa, Fluid (supercritical or subcritical phases)	0.02292 W/m/K
421.62 K, 2616 kPa, Liquid	0.0497 W/m/K
421.63 K, 1724 kPa, Fluid (supercritical or subcritical phases)	0.0214 W/m/K
421.63 K, 2616 kPa, Liquid	0.04969 W/m/K
421.64 K, 1220 kPa, Fluid (supercritical or subcritical phases)	0.02082 W/m/K
421.64 K, 1221 kPa, Fluid (supercritical or subcritical phases)	0.02077 W/m/K
421.66 K, 2099 kPa, Fluid (supercritical or subcritical phases)	0.02245 W/m/K
421.66 K, 2100 kPa, Fluid (supercritical or subcritical phases)	0.02244 W/m/K
421.67 K, 2403 kPa, Fluid (supercritical or subcritical phases)	0.02364 W/m/K
421.68 K, 1031 kPa, Fluid (supercritical or subcritical phases)	0.02073 W/m/K
421.68 K, 2403 kPa, Fluid (supercritical or subcritical phases)	0.02418 W/m/K
421.69 K, 1998 kPa, Fluid (supercritical or subcritical phases)	0.02232 W/m/K
421.7 K, 1999 kPa, Fluid (supercritical or subcritical phases)	0.02203 W/m/K
421.71 K, 1562 kPa, Fluid (supercritical or subcritical phases)	0.02117 W/m/K
421.72 K, 2307 kPa, Fluid (supercritical or subcritical phases)	0.02349 W/m/K
421.74 K, 801 kPa, Fluid (supercritical or subcritical phases)	0.0208 W/m/K
421.75 K, 1862 kPa, Fluid (supercritical or subcritical phases)	0.02184 W/m/K
421.75 K, 1863 kPa, Fluid (supercritical or subcritical phases)	0.02174 W/m/K
421.77 K, 1401 kPa, Fluid (supercritical or subcritical phases)	0.02096 W/m/K
421.77 K, 1403 kPa, Fluid (supercritical or subcritical phases)	0.02094 W/m/K
421.78 K, 3760 kPa, Liquid	0.05136 W/m/K and 0.05147 W/m/K
421.79 K, 2203 kPa, Fluid (supercritical or subcritical phases)	0.02296 W/m/K and 0.02299 W/m/K
421.8 K, 3309 kPa, Liquid	0.05069 W/m/K
421.81 K, 1723 kPa, Fluid (supercritical or subcritical phases)	0.02142 W/m/K
421.81 K, 1724 kPa, Fluid (supercritical or subcritical phases)	0.02139 W/m/K
421.81 K, 2616 kPa, Liquid	0.04986 W/m/K and 0.05013 W/m/K
421.81 K, 2914 kPa, Liquid	0.05019 W/m/K and 0.05004 W/m/K
421.81 K, 3308 kPa, Liquid	0.05077 W/m/K
421.83 K, 1221 kPa, Fluid (supercritical or subcritical phases)	0.0209 W/m/K
421.84 K, 2100 kPa, Fluid (supercritical or subcritical phases)	0.02258 W/m/K
421.85 K, 2099 kPa, Fluid (supercritical or subcritical phases)	0.02249 W/m/K
421.88 K, 1030 kPa, Fluid (supercritical or subcritical phases)	0.02077 W/m/K
421.88 K, 1033 kPa, Fluid (supercritical or subcritical phases)	0.02075 W/m/K
421.88 K, 1998 kPa, Fluid (supercritical or subcritical phases)	0.0222 W/m/K and 0.02217 W/m/K
421.91 K, 1563 kPa, Fluid (supercritical or subcritical phases)	0.02121 W/m/K
421.91 K, 2306 kPa, Fluid (supercritical or subcritical phases)	0.02366 W/m/K
421.91 K, 2307 kPa, Fluid (supercritical or subcritical phases)	0.02365 W/m/K
421.92 K, 1563 kPa, Fluid (supercritical or subcritical phases)	0.02116 W/m/K
421.94 K, 802 kPa, Fluid (supercritical or subcritical phases)	0.02077 W/m/K
421.95 K, 1862 kPa, Fluid (supercritical or subcritical phases)	0.02178 W/m/K and 0.0218 W/m/K
421.97 K, 2203 kPa, Fluid (supercritical or subcritical phases)	0.02307 W/m/K
421.98 K, 1401 kPa, Fluid (supercritical or subcritical phases)	0.02101 W/m/K
421.98 K, 1403 kPa, Fluid (supercritical or subcritical phases)	0.02116 W/m/K
421.98 K, 2204 kPa, Fluid (supercritical or subcritical phases)	0.02311 W/m/K
421.99 K, 3758 kPa, Liquid	0.05138 W/m/K
421.99 K, 4307 kPa, Liquid	0.05224 W/m/K
422 K, 3762 kPa, Liquid	0.05146 W/m/K
422 K, 4305 kPa, Liquid	0.0522 W/m/K
422.01 K, 1724 kPa, Fluid (supercritical or subcritical phases)	0.02156 W/m/K and 0.02145 W/m/K
422.01 K, 2914 kPa, Liquid	0.05029 W/m/K
422.01 K, 3308 kPa, Liquid	0.05079 W/m/K
422.01 K, 3310 kPa, Liquid	0.05082 W/m/K
422.02 K, 2616 kPa, Liquid	0.05008 W/m/K and 0.05005 W/m/K
422.02 K, 2914 kPa, Liquid	0.05026 W/m/K
422.03 K, 2099 kPa, Fluid (supercritical or subcritical phases)	0.02265 W/m/K
422.04 K, 2099 kPa, Fluid (supercritical or subcritical phases)	0.02262 W/m/K
422.06 K, 1218 kPa, Fluid (supercritical or subcritical phases)	0.02083 W/m/K
422.06 K, 1220 kPa, Fluid (supercritical or subcritical phases)	0.0209 W/m/K
422.08 K, 1998 kPa, Fluid (supercritical or subcritical phases)	0.0223 W/m/K
422.1 K, 1030 kPa, Fluid (supercritical or subcritical phases)	0.02079 W/m/K
422.1 K, 1031 kPa, Fluid (supercritical or subcritical phases)	0.02076 W/m/K
422.12 K, 1562 kPa, Fluid (supercritical or subcritical phases)	0.02118 W/m/K
422.16 K, 1862 kPa, Fluid (supercritical or subcritical phases)	0.02194 W/m/K
422.16 K, 1863 kPa, Fluid (supercritical or subcritical phases)	0.02189 W/m/K
422.18 K, 803 kPa, Fluid (supercritical or subcritical phases)	0.0208 W/m/K
422.18 K, 4947 kPa, Liquid	0.05308 W/m/K
422.18 K, 4948 kPa, Liquid	0.05312 W/m/K
422.2 K, 1401 kPa, Fluid (supercritical or subcritical phases)	0.02102 W/m/K
422.2 K, 1402 kPa, Fluid (supercritical or subcritical phases)	0.02108 W/m/K
422.21 K, 3760 kPa, Liquid	0.05155 W/m/K and 0.05149 W/m/K
422.21 K, 4301 kPa, Liquid	0.05224 W/m/K
422.22 K, 4305 kPa, Liquid	0.05226 W/m/K
422.23 K, 1723 kPa, Fluid (supercritical or subcritical phases)	0.02155 W/m/K
422.23 K, 3307 kPa, Liquid	0.05087 W/m/K
422.24 K, 1723 kPa, Fluid (supercritical or subcritical phases)	0.0216 W/m/K
422.24 K, 3310 kPa, Liquid	0.05093 W/m/K
422.25 K, 1221 kPa, Fluid (supercritical or subcritical phases)	0.0209 W/m/K
422.25 K, 2616 kPa, Liquid	0.05034 W/m/K
422.25 K, 2913 kPa, Liquid	0.05043 W/m/K
422.25 K, 2914 kPa, Liquid	0.05049 W/m/K
422.33 K, 1032 kPa, Fluid (supercritical or subcritical phases)	0.02082 W/m/K
422.33 K, 1561 kPa, Fluid (supercritical or subcritical phases)	0.02131 W/m/K
422.33 K, 6610 kPa, Liquid	0.05507 W/m/K

Reference: the NIST ThermoML archive (doi:10.1021/acs.jced.7b00106)
